The term IC50 denotes the concentration that gives 50% inhibition. A high value points to weaker potency in that assay. By melting point is commonly meant the temperature, or range, at which the solid turns liquid.

From patent US6589970B2, “6-(aryl-amido or aryl-amidomethyl)-naphthalen-2-yloxy-acidic derivatives as inhibitors of plasminogen activator inhibitor type-1 (PAI-1)” (Wyeth, priority 2001, dated 2003) come the findings set out here.

The target in one data set is human PAI-1 (Homo sapiens, UniProt P05121). The experiment in a line: Assay for Determining IC50 of Inhibition of PAI-1 (Antibody Assay). It counts as biochemical. The following applies: active PAI-1 bound to tPA-coated plate. As to the method:
This assay is based upon the non-SDS dissociable interaction between tPA and active PAI-1. Assay plates are initially coated with human tPA (10 μg/ml). The test compounds are dissolved in DMSO at 10 mM, then diluted with physiologic buffer (pH 7.5) to a final concentration of 1-50 μM. The test compounds are incubated with human PAI-1 (50 ng/ml) for 15 minutes at room temperature. The tPA-coated plate is washed with a solution of 0.05% Tween 20 and 0.1% BSA, then the plate is blocked with a solution of 3% BSA. An aliquot of the test compound/PAI-1 solution is then added to the tPA-coated plate, incubated at room temperature for 1 hour, and washed. Active PAI-1 bound to the plate is assessed by adding an aliquot of a 1:1000 dilution of the 33B8 monoclonal antibody against human PAI-1, and incubating the plate at room temperature for 1 hour (Molecular Innovations, Royal Oak, Mich. The plate is again washed, and a solution of goat anti-mouse IgG-alkaline phosphatase conjugate is added at a 1:50,000 dilution in goat serum. The plate is incubated 30 minutes at room temperature, washed, and a solution of alkaline phosphatase substrate is added. The plate is incubated 45 minutes at room temperature, and color development is determined at OD405nm. The quantitation of active PAI-1 bound to tPA at varying concentrations of the test compound is used to determine the IC50. Results are analyzed using a logarithmic best-fit equation. The assay sensitivity is 5 ng/ml of human PAI-1 as determined from a standard curve ranging from 0-100 ng/ml.

Data set [1] addresses T1, recombinant human plasminogen activator inhibitor-1 (PAI-1) (Homo sapiens, UniProt P05121).
T1 construct: purchased Molecular Innovations, Royal Oak, Mich
The experiment in a line: Primary Screen for the PAI-1 Inhibition. The following applies: for inhibition at 25 µM: 25 μM test compound, read-out: % Inhib. 25 μM; for inhibition at 100 µM: 100 μM test compound, read-out: % Inhib. 100 μM. It is filed as biochemical. As for the experimental part: Test compounds are dissolved in DMSO at a final concentration of 10 mM, then diluted 100× in physiologic buffer. The inhibitory assay is initiated by the addition of the test compound (1-100 μM final concentration, maximum DMSO concentration of 0.2%) in a pH 6.6 buffer containing 140 nM recombinant human plasminogen activator inhibitor-1 (PAI-1; Molecular Innovations, Royal Oak, Mich.). Following a 1 hour incubation at room temperature, 70 nM of recombinant human tissue plasminogen activator (tPA) is added, and the combination of the test compound, PAI-1 and tPA is incubated for an additional 30 minutes. Following the second incubation, Spectrozyme-tPA (American Diagnostica, Greenwich, Conn.), a chromogenic substrate for tPA, is added and absorbance read at 405 nm at 0 and 60 minutes. Relative PAI-1 inhibition is equal to the residual tPA activity in the presence of the test compound and PAI-1. Control treatments include the complete inhibition of tPA by PAI-1 at the molar ratio employed (2:1), and the absence of any effect of the test compound on tPA alone.

The structures appear in SMILES notation.

T1 sequence (P05121 24-402): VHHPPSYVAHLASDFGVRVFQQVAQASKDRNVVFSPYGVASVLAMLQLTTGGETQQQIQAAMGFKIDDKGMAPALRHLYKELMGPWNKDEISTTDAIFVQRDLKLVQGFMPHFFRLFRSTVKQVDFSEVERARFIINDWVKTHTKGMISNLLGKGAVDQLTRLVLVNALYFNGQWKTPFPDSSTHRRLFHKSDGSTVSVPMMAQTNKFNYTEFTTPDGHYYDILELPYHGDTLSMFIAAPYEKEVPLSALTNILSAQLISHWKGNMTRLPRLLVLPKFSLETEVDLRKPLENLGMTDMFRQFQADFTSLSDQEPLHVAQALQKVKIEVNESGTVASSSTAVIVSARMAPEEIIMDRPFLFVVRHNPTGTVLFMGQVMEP
Sequence of human PAI-1 (P05121 24-402): as above

In the case of `CN(Cc1ccc2c(Br)c(OC(Cc3ccccc3)C(=O)O)ccc2c1)C(=O)c1cc(C(C)(C)C)cc(C(C)(C)C)c1` (stereo not shown) [Example 65, 2-(1-Bromo-6-{[(3,5-di-tert-butyl-benzoyl)-methyl-amino]-methyl}-naphthalen-2-yloxy)-3-phenyl-propionic acid], inhibition on human PAI-1 was half-maximal at 14.6 µM (IC50). Besides, in data set [1], the inhibition at 25 µM was 46% and the inhibition at 100 µM amounted to 88%.

Consider `CCCCc1oc2ccccc2c1C(=O)N(Cc1ccccc1)Cc1ccc2c(Br)c(OC(Cc3ccccc3)C(=O)O)ccc2c1` (stereo not shown) [Example 68, 2-(6-{[Benzyl-(2-butyl-benzofuran-3-carbonyl)-amino]-methyl}-1-bromo-naphthalen-2-yloxy)-3-phenyl-propionic acid], for which half-maximal inhibition against human PAI-1 (IC50) required 20 µM. For the same compound, in data set [1], the inhibition at 25 µM was determined as 54% and the inhibition at 100 µM came to 84%.

As for `CN(Cc1ccc2c(Br)c(OCc3nnn[nH]3)ccc2c1)C(=O)c1cn(Cc2ccccc2)c2ccccc12` [Example 34, 1-Benzyl-1H-indole-3-carboxylic acid [5-bromo-6-(1H-tetrazol-5-ylmethoxy)-naphthalen-2-ylmethyl]-methyl-amide], the melting point was 197 to 198 °C. On human PAI-1, this compound came in with a 50% inhibitory concentration (IC50) of 19.3 µM. In data set [1], the inhibition at 25 µM amounted to 34% and the inhibition at 100 µM stood at 81%.

Regarding `CCc1oc2ccccc2c1C(=O)N(Cc1ccccc1)Cc1ccc2c(Br)c(OCc3nnn[nH]3)ccc2c1` [Example 50, 2-Ethyl-benzofuran-3-carboxylic acid benzyl-[5-bromo-6-(1H-tetrazol-5ylmethoxy)-naphthalen-2-ylmethyl)-amide], on human PAI-1, the IC50 was found to be 35.7 µM. Also, in data set [1], the inhibition at 25 µM amounted to 56% and the inhibition at 100 µM was 61%.

Regarding `CCCc1c(C(=O)N(C)Cc2ccc3c(Br)c(OCc4nnn[nH]4)ccc3c2)cnn1-c1ccccc1` [Example 33, 1-Phenyl-5-propyl-1H-pyrazole-4-carboxylic acid [5-bromo-6-(1H-tetrazol-5-ylmethoxy)-naphthalen-2-ylmethyl]-methyl-amide], the melting point lay within 75 to 85 °C. Inhibition against human PAI-1 was half-maximal at 31.1 µM (IC50). Also, in data set [1], the inhibition at 25 µM is 59% and the inhibition at 100 µM came out at 94%.

`CCCCN(Cc1ccc2c(Br)c(OCc3nnn[nH]3)ccc2c1)C(=O)c1c(C)oc2ccccc12` [Example 52, 2-Methyl-benzofuran-3-carboxylic acid [5-bromo-6-(1H-tetrazol-5-ylmethoxy)-naphthalen-2-ylmethyl]-butyl-amide] returned a melting point of 204 to 206 °C. On human PAI-1, this compound returned an IC50 of 20.8 µM. For the same compound, in data set [1], the inhibition at 25 µM was 44% and the inhibition at 100 µM turned out to be 81%.

In turn, `O=C(O)C(Cc1ccccc1)Oc1ccc2cc(CN(Cc3ccccc3)C(=O)c3ccc(Oc4cc(Cl)cc(Cl)c4)o3)ccc2c1Br` (stereo not shown) [Example 67, 2-[6-({Benzyl-[5-(3,5-dichloro-phenoxy)-furan-2-carbonyl]-amino}-methyl)-1-bromo-naphthalen-2-yloxy]-3-phenyl-propionic acid] returned a half-inhibitory concentration (IC50) against human PAI-1 of 13.5 µM. Moreover, in data set [1], the inhibition at 25 µM worked out at 59% and the inhibition at 100 µM was 66%.

Turning to `Cc1oc2ccccc2c1C(=O)NCc1ccc2c(Br)c(OCc3nnn[nH]3)ccc2c1` [Example 20, 2-Methyl-benzofuran-3-carboxylic acid [5-bromo-6-(1H-tetrazol-5-ylmethoxy)-naphthalen-2-ylmethyl]-amide], the melting point was 242 to 244 °C. On human PAI-1, half-maximal inhibition (IC50) required 15.8 µM. Further, in data set [1], the inhibition at 25 µM stood at 26% and the inhibition at 100 µM was 58%.

`CCCCc1oc2ccccc2c1C(=O)NCc1ccc2c(-c3ccc(OC)cc3)c(OC(Cc3ccccc3)C(=O)[O-])ccc2c1.[Na+]` (stereo not shown) [Example 30, Sodium; 2-[6-{[(2-Butyl-benzofuran-3-carbonyl)-amino]-methyl}-1-(4-methoxy-phenyl)-naphthalen-2-yloxy]-3-phenyl-propionate] had a melting point of 138 to 142 °C. The same compound came in with an IC50 against human PAI-1 of 44.9 µM. For the same compound, in data set [1], the inhibition at 25 µM turned out to be 38% and the inhibition at 100 µM is 91%.

In turn, `CCCCc1c(C(=O)N(C)Cc2ccc3c(Br)c(OCc4nnn[nH]4)ccc3c2)oc2ccccc12` [Example 39, 3-Butyl-benzofuran-2-carboxylic acid [5-bromo-6-(1H-tetrazol-5-ylmethoxy)-naphthalen-2-ylmethyl]-methyl-amide] came in with a melting point of 180 to 183 °C. Also, in data set [1], the inhibition at 25 µM worked out at 24% and the inhibition at 100 µM came out at 69%.

For `Cc1c(C(=O)N(C)Cc2ccc3c(Br)c(OCc4nnn[nH]4)ccc3c2)oc2ccccc12` [Example 41, 3-Methyl-benzofuran-2-carboxylic acid [5-bromo-6-(1H-tetrazol-5-ylmethoxy)-naphthalen-2-ylmethyl]-methyl-amide], the melting point was in the range of 164 to 166 °C. In data set [1], the inhibition at 25 µM turned out to be 49% and the inhibition at 100 µM was determined as 91%.

The compound `CN(Cc1ccc2c(Br)c(OC(Cc3ccccc3)C(=O)O)ccc2c1)C(=O)c1ccc(Oc2cc(Cl)cc(Cl)c2)o1` (stereo not shown) [Example 64, 2-[1-Bromo-6-({[5-(3,5-dichloro-phenoxy)-furan-2-carbonyl]-methyl-amino}-methyl)-naphthalen-2-yloxy]-3-phenyl-propionic acid] returned a half-inhibitory concentration (IC50) on human PAI-1 of 13.6 µM. Besides, in data set [1], the inhibition at 25 µM amounted to 40% and the inhibition at 100 µM is 60%.

Take `Cc1oc2ccccc2c1C(=O)N(Cc1ccccc1)Cc1ccc2c(Br)c(OCc3nnn[nH]3)ccc2c1` [Example 49, 2-Methyl-benzofuran-3-carboxylic acid benzyl-[5-bromo-6-(1H-tetrazol-5-ylmethoxy)-naphthalen-2-ylmethyl]-amide]: the IC50 against human PAI-1 was determined as 6.92 µM. In data set [1], the inhibition at 25 µM was found to be 54% and the inhibition at 100 µM came to 72%.

Regarding `CC(C)(C)c1cc(C(=O)N(Cc2ccccc2)Cc2ccc3c(Br)c(OC(Cc4ccccc4)C(=O)O)ccc3c2)cc(C(C)(C)C)c1` (stereo not shown) [Example 69, 2-(6-{[Benzyl-(3,5-di-tert-butyl-benzoyl)-amino]-methyl}-1-bromo-naphthalen-2-yloxy)-3-phenyl-propionic acid], 16.8 µM corresponded to half-maximal inhibition at human PAI-1 (IC50). In data set [1], the inhibition at 25 µM is 55% and the inhibition at 100 µM worked out at 92%.

In turn, `CCCCc1c(C(=O)N(C)Cc2ccc3c(Br)c(OCc4nnn[nH]4)ccc3c2)c2ccccc2n1C` [Example 36, 2-Butyl-1-methyl-1H-indole-3-carboxylic acid [5-bromo-6-(1H-tetrazol-5-ylmethoxy)-naphthalen-2-ylmethyl]-methyl-amide] came in with a melting point of 147 to 149 °C. Besides, in data set [1], the inhibition at 25 µM was found to be 4% and the inhibition at 100 µM is 46%.

`CCc1oc2ccccc2c1C(=O)N(C)Cc1ccc2c(Br)c(OCc3nnn[nH]3)ccc2c1` [Example 32, 2-Ethyl-benzofuran-3-carboxylic acid [5-bromo-6-(1H-tetrazol-5-ylmethoxy)-naphthalen-2-ylmethyl]-methyl-amide] displayed an IC50 against human PAI-1 of 25.9 µM. Further, in data set [1], the inhibition at 25 µM was found to be 1% and the inhibition at 100 µM came to 70%.

With `CCCCc1oc2ccccc2c1C(=O)NCc1ccc2c(Br)c(OC(Cc3ccccc3)C(=O)O)ccc2c1` (stereo not shown) [Example 18, 2-(1-Bromo-6-{[(2-butyl-benzofuran-3-carbonyl)-amino]-methyl}-naphthalen-2-yloxy)-3-phenyl-propionic acid], the concentration for half-maximal inhibition (IC50) on human PAI-1 amounted to 15.7 µM. Also, in data set [1], the inhibition at 25 µM is 53% and the inhibition at 100 µM is 92%.

In turn, `CN(Cc1ccc2c(Br)c(OCc3nnn[nH]3)ccc2c1)C(=O)c1oc2ccccc2c1CCc1ccccc1` [Example 45, 3-Phenethyl-benzofuran-2-carboxylic acid [5-bromo-6-(1H-tetrazol-5-ylmethoxy)-naphthalen-2-ylmethyl]-methyl-amide] returned a melting point of 56 to 59 °C. Further, the inhibition at 100 µM in data set [1] is 17%.

At human PAI-1, `O=C(O)COc1ccc2cc(CNC(=O)c3cnn(-c4ccc(Cl)cc4)c3C(F)(F)F)ccc2c1` [Example 14, [6-({[1-(4-Chloro-phenyl)-5-trifluoromethyl-1H-pyrazole-4-carbonyl]-amino}-methyl)-naphthalen-2-yloxy]-acetic acid] displayed an IC50 of 51 µM. In data set [1], the inhibition at 25 µM was 1% and the inhibition at 100 µM was found to be 70%.
